Assay results published in US8877765B2, “Highly soluble pyrimido-dione-quinoline compounds and their use in the treatment of cancer” (The United States of America as represented by the …, priority 2006, dated 2014).
Where a SMILES comes first, the peptide text is derived from it. [ ]: non-standard residue; d: D form. Nle = CCCC[C@H](N)C(=O)O

What was measured:
Hdm2 [1] = target: T1, Hdm2 (Homo sapiens, UniProt Q00987); conditions: U2OS cells; FIG. 6
Hdm2 [2] = target: T1, Hdm2; experiment: E3 specificity: level of transfected Hdm2 in MEFs expressing neither Mdm2 nor p53; conditions: immunoblotting, FIG. 5
Description: (§1) Following treatment with ALLN, 1, 2 (10-(4-methyl-phenyl)-7-nitro-10H-pyrimido[4,5-b]quinoline-2,4-dione), 3 (10-(4-chloro-phenyl)-7-nitro-10H-pyrimido[4,5-b]quinoline-2,4-dione), and 4 (10-(3-chloro-phenyl)-7-nitro-10H-pyrimido[4,5-b]quinoline-2,4-dione), levels of the E3s were examined by immunoblotting with specific antibodies.

AO7 (RNF25) = experiment: E3 specificity: level of transfected AO7 in MEFs expressing neither Mdm2 nor p53; conditions: immunoblotting, FIG. 5
Description: as §1

gp78 (AMFR) = gp78 (AMFR) (Homo sapiens, UniProt Q9UKV5); experiment: E3 specificity: level of transfected gp78 in MEFs expressing neither Mdm2 nor p53; conditions: immunoblotting, FIG. 5
Chain of gp78 (AMFR) (Q9UKV5 whole entry, species assumed): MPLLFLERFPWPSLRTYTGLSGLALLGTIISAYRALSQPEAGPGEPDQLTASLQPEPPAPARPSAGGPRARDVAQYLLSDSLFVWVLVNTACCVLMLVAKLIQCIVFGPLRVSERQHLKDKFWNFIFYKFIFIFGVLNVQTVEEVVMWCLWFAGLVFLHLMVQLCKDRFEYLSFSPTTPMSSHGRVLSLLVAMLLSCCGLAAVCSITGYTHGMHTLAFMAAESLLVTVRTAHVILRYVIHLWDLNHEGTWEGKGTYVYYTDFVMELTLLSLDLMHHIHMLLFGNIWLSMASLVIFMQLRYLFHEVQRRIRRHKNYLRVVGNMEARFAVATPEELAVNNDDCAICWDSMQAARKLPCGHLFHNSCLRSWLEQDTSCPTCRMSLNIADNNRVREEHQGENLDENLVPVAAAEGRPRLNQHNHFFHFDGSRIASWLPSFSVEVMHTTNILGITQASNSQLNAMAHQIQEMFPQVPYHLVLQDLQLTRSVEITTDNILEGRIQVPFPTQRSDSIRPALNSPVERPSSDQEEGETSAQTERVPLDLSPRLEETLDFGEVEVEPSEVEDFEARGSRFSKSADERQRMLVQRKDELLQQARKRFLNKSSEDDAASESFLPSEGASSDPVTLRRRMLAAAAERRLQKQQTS
Description: as §1

p53 = p53 response element-driven luciferase reporter in U2OS cells; assay type: cell-based; conditions: 18 hours, FIG. 3
Protocol: U2OS cells stably transfected with a p53 response element-driven luciferase were treated with indicated concentration of compounds for 18 hours. The cells were then harvested and lysed to measure luciferase activity using the luciferase assay system (Promega) according to manufacturer's instruction.

[3] = Additional experiments on DNA damage (data not shown)
Hdm2 and p53 = experiment: Accumulation of Hdm2 and p53 in non-transformed RPE cells (immunoblot); assay type: cell-based, human; conditions: 8 hours, 5 μM or 10 μM solution in PBS, or 5 μm solution in DMSO, FIG. 1
Protocol: Human retina pigment epithelial (RPE) cells were cultured with HyQ DME/F (HyClone) supplemented with 10% FCS and 2.5% Sodium Bicarbonate. They were harvested with Trpsin-EDTA and seeded into a 12-well tissue culture cluster and incubated for 18-40 hours to reach 80% confluent. Following treatment with indicated compounds for 8 hours, the cells were harvested and lysed with RIPA buffer. Following removal of insoluble pellet by centrifugation for 20 minutes at 10000 rpm, the lysate was separated on a 4-20% gradient SDS-polyacrylamide gel and transferred onto nitrocellulose membrane. The membrane was then blotted with anti-p53 antibody (DO-1) anti-Hdm2 antibodies (Ab-1 and Ab-2). After extensive washing with PBS containing 0.5% Triton x-100, it was incubated with HRP-conjugated donkey anti-mouse antibody and visualized using enhanced chemiluminescence.

[4] = system: tumor cells expressing wild type p53; experiment: Apoptosis-inducing activity in tumor cell lines that do or do not express p53; assay type: cell-based; conditions: pair of cell lines that either do or do not express p53; FIG. 7

T1 sequence (Q00987 whole entry): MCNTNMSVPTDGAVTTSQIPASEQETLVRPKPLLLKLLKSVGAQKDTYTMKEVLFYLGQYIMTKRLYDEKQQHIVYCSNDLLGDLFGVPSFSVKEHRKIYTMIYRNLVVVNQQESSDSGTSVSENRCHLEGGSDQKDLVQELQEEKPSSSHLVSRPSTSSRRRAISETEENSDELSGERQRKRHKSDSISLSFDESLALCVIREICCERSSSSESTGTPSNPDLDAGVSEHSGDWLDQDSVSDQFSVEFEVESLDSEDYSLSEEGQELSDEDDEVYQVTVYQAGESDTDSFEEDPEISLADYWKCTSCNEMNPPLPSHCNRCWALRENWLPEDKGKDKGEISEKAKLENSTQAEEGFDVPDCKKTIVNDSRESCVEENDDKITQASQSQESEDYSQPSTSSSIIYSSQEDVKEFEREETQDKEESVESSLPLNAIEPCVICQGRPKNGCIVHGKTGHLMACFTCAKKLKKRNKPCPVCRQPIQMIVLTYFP

Structure (SMILES)	accumulation of ubiquitylated p53 (Hdm2 [1])	degradation / stabilization of p53 and Hdm2 (Hdm2 [1])	level of Hdm2 (Hdm2 [2])	level of AO7 (AO7 (RNF25))	level of gp78 (gp78 (AMFR))	capacity to activate a p53 reporter (luciferase activity) (p53)	p53 reporter activity compared with proteosome inhibitor and Adriamycin (p53; concentration of 10 μM)	functioning by inducing DNA damage [3]	accumulation of both Hdm2 and p53 (Hdm2 and p53)	killing of tumor cells by p53 status [4]
CCCC[C@@H](C=O)NC(=O)[C@H](CC(C)C)NC(=O)[C@H](CC(C)C)NC(C)=O [ALLN] (Ac-Leu-Leu-[Nle]-aldehyde)	easily detectable	stabilized Hdm2 and p53	higher levels	higher levels	higher levels					
CN(C)CCCNc1c2c(=O)n(C)c(=O)nc-2n(C)c2ccccc12 [Compound 1, 5-(3-Dimethylamino-propylamino)-3,10-dimethyl-10H-pyrimido[4,5-b]quinoline-2,4-dione]					little effects	high capacity to activate a p53 reporter	much greater than proteosome inhibitor and Adriamycin	ruled out	significant accumulation of both Hdm2 and p53	preferential killing of tumor cells expressing wild type p53
